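How tested: cells in 96-well plates exposed to compound for 48 hours at five concentrations. The concentration for 50% growth inhibition is given as GI50.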 Calls of active or inactive are those of the source. No stated cut-off is given here; in the data, active = GI50 up to about 1.1 µM and inactive = higher.
Experiments:
Assay in all cases: NCI-60 cell line screen, 48 h
[1] = tested on: A498
[2] = tested on: CCRF-CEM
[3] = tested on: EKVX
[4] = tested on: HCT-15
[5] = tested on: HL-60
[6] = tested on: HOP-92
[7] = tested on: HT-29
[8] = tested on: MCF7
[9] = tested on: NCI-H522
[10] = tested on: NCI/ADR-RES
[11] = tested on: OVCAR-3
[12] = tested on: OVCAR-5
[13] = tested on: PC-3
[14] = tested on: RPMI-8226
[15] = tested on: RXF 393
[16] = tested on: SN12C
[17] = tested on: SR
[18] = tested on: T47D
[19] = tested on: TK-10
[20] = tested on: SK-OV-3

SMILES | GI50 [1] | GI50 [2] | GI50 [3] | GI50 [4] | GI50 [5] | GI50 [6] | GI50 [7] | GI50 [8] | GI50 [9] | GI50 [10] | GI50 [11] | GI50 [12] | GI50 [13] | GI50 [14] | GI50 [15] | GI50 [16] | GI50 [17] | GI50 [18] | GI50 [19] | GI50 [20]
COc1c2occc2c(N)c2ccc(=O)oc12 | > 100 µM (inactive) | 93.5 µM (inactive) | 51.9 µM (inactive) | > 100 µM | 49.2 µM (inactive) | > 100 µM (inactive) | > 100 µM (inactive) | > 100 µM (inactive) | 75 µM (inactive) | > 100 µM (inactive) | > 100 µM (inactive) | > 100 µM (inactive) | > 100 µM (inactive) | > 100 µM (inactive) | 15.3 µM (inactive) | > 100 µM (inactive) | > 100 µM (inactive) | > 100 µM (inactive) | > 100 µM (inactive) | –
CC(=O)OC(C)c1cc2c(s1)C(=O)c1sccc1C2=O (configuration not stated) | 2.33 µM (inactive) | 2.76 µM (inactive) | 2.03 µM (inactive) | 0.902 µM | 1.74 µM (inactive) | 3.51 µM (inactive) | 1.96 µM (inactive) | 0.995 µM (active) | 1.27 µM (inactive) | 1.71 µM (inactive) | 0.604 µM (active) | 1.73 µM (inactive) | 2.19 µM (inactive) | 0.951 µM (active) | 1.56 µM (inactive) | 0.542 µM (active) | 0.51 µM (active) | 2.58 µM (inactive) | 1.85 µM (inactive) | 2.95 µM (inactive)
CCN(CC)CCCNc1n[n+]([O-])c2ccccc2[n+]1[O-] | 3.62 µM (inactive) | 14.2 µM (inactive) | – | 2.5 µM | 3.57 µM (inactive) | 27.1 µM (inactive) | 11.1 µM (inactive) | 3.92 µM (inactive) | 8.22 µM (inactive) | 42.4 µM (inactive) | > 10 µM (inactive) | 20.5 µM (inactive) | 9.73 µM (inactive) | 4.21 µM (inactive) | 13 µM (inactive) | 4.68 µM (inactive) | 13.7 µM (inactive) | 14.3 µM (inactive) | 4.07 µM (inactive) | –
Nc1nc(N)c2ncn(Cc3ccccc3CO)c2n1 | > 100 µM (inactive) | 29.7 µM (inactive) | > 100 µM (inactive) | > 100 µM | > 100 µM (inactive) | > 100 µM (inactive) | > 100 µM (inactive) | > 100 µM (inactive) | > 100 µM (inactive) | > 100 µM (inactive) | > 100 µM (inactive) | > 100 µM (inactive) | > 100 µM (inactive) | > 100 µM (inactive) | – | > 100 µM (inactive) | > 100 µM (inactive) | > 100 µM (inactive) | > 100 µM (inactive) | > 100 µM (inactive)
CC(=O)OC(OC(C)=O)c1c2ccccc2cc2ccccc12 | 17.7 µM (inactive) | 2.39 µM (inactive) | 20 µM (inactive) | 7.55 µM | 23.7 µM (inactive) | 21.4 µM (inactive) | 13.4 µM (inactive) | 16.5 µM (inactive) | – | 8.34 µM (inactive) | 21.4 µM (inactive) | 30.5 µM (inactive) | 3.59 µM (inactive) | 16.6 µM (inactive) | 13.3 µM (inactive) | 12.9 µM (inactive) | 9.53 µM (inactive) | 17.2 µM (inactive) | 20.4 µM (inactive) | 20.9 µM (inactive)
CC(C)(Br)C(=O)/C=C/c1ccccc1 | 18.7 µM (inactive) | 0.22 µM (active) | 7.62 µM (inactive) | 1.97 µM | 3.91 µM (inactive) | 4.35 µM (inactive) | 4.23 µM (inactive) | 3.56 µM (inactive) | 0.136 µM (active) | 17.6 µM (inactive) | 8.17 µM (inactive) | 6.56 µM (inactive) | 7.69 µM (inactive) | 0.925 µM (active) | – | 6.21 µM (inactive) | 1.98 µM (inactive) | 2.47 µM (inactive) | 10.6 µM (inactive) | 25.6 µM (inactive)
COc1cc(OC)c(/C=N/N=C(\N)NO)c(OC)c1 | > 100 µM (inactive) | > 100 µM (inactive) | 35.4 µM (inactive) | 83.9 µM | – | > 100 µM (inactive) | > 100 µM (inactive) | > 100 µM (inactive) | > 100 µM (inactive) | > 100 µM (inactive) | > 100 µM (inactive) | > 100 µM (inactive) | > 100 µM (inactive) | > 100 µM (inactive) | > 100 µM (inactive) | > 100 µM (inactive) | 63.5 µM (inactive) | > 100 µM (inactive) | > 100 µM (inactive) | > 100 µM (inactive)
CC(=O)OCC1(CNc2nc(N)ncc2C#N)CC(CCc2ccccc2)C1 (configuration not stated) | 21.9 µM (inactive) | 57 µM (inactive) | 6.01 µM (inactive) | > 100 µM | 3.66 µM (inactive) | 2.45 µM (inactive) | > 100 µM (inactive) | 12 µM (inactive) | 20.2 µM (inactive) | 10.3 µM (inactive) | – | > 100 µM (inactive) | > 100 µM (inactive) | – | 27.5 µM (inactive) | > 100 µM (inactive) | 4.8 µM (inactive) | 13.3 µM (inactive) | > 10 µM (inactive) | –
CC(=O)N(C(C)=O)n1c(Cc2ccc(C)cc2)nn(C(C)=O)c1=O | > 100 µM (inactive) | > 100 µM (inactive) | > 100 µM (inactive) | > 100 µM | > 100 µM (inactive) | > 100 µM (inactive) | > 100 µM (inactive) | > 100 µM (inactive) | > 100 µM (inactive) | > 100 µM (inactive) | > 100 µM (inactive) | > 100 µM (inactive) | > 100 µM (inactive) | > 100 µM (inactive) | – | > 100 µM (inactive) | > 100 µM (inactive) | > 100 µM (inactive) | > 100 µM (inactive) | > 100 µM (inactive)
COC(=O)Cn1c(=O)oc2nc(-c3ccccc3)cc(C(F)(F)F)c21 | > 100 µM (inactive) | – | 70.6 µM (inactive) | > 100 µM | – | 27.2 µM (inactive) | 32.8 µM (inactive) | > 100 µM (inactive) | 25.3 µM (inactive) | 23.8 µM (inactive) | 75.3 µM (inactive) | > 100 µM (inactive) | > 100 µM (inactive) | 27.5 µM (inactive) | > 100 µM (inactive) | 56.6 µM (inactive) | 62.2 µM (inactive) | > 100 µM (inactive) | > 100 µM (inactive) | > 100 µM (inactive)
C[n+]1ccn2c3nc4ccccc4nc3c([O-])c(C#N)c21 | > 100 µM (inactive) | > 100 µM (inactive) | > 100 µM (inactive) | > 10 µM | > 100 µM (inactive) | > 100 µM (inactive) | > 100 µM (inactive) | 88.9 µM (inactive) | > 10 µM (inactive) | > 34.2 µM (inactive) | > 100 µM (inactive) | > 10 µM (inactive) | > 100 µM (inactive) | > 100 µM (inactive) | > 65.9 µM (inactive) | > 100 µM (inactive) | > 100 µM (inactive) | > 100 µM (inactive) | > 10 µM (inactive) | > 100 µM (inactive)
COc1ccc(C(SCCO)(c2ccc(OC)cc2)c2ccc(OC)cc2)cc1 | 17.8 µM (inactive) | 7.23 µM (inactive) | 10.7 µM (inactive) | 11.4 µM | 21 µM (inactive) | 10.1 µM (inactive) | 17 µM (inactive) | 14.8 µM (inactive) | 12.4 µM (inactive) | 13.6 µM (inactive) | 10.5 µM (inactive) | 22.5 µM (inactive) | 13.8 µM (inactive) | – | 12 µM (inactive) | 17.5 µM (inactive) | 3.4 µM (inactive) | 6.03 µM (inactive) | 21.8 µM (inactive) | 29.1 µM (inactive)
CC(C)(C)OC(=O)NC(Cc1ccc([N+](=O)[O-])cc1)C(=O)NC(CCCCNC(=O)OCc1ccccc1)C(=O)ON1C(=O)CCC1=O (configuration not stated) | > 100 µM (inactive) | – | > 100 µM (inactive) | > 100 µM | 78.3 µM (inactive) | > 100 µM (inactive) | > 100 µM (inactive) | > 100 µM (inactive) | > 100 µM (inactive) | > 100 µM (inactive) | > 100 µM (inactive) | > 100 µM (inactive) | 52.5 µM (inactive) | 57 µM (inactive) | > 100 µM (inactive) | 70.6 µM (inactive) | 49.4 µM (inactive) | > 10 µM (inactive) | > 100 µM (inactive) | > 100 µM (inactive)
Brc1ccc(/N=N/N2CCCCC2)cc1 | 57.5 µM (inactive) | 22.2 µM (inactive) | 40.1 µM (inactive) | 27.5 µM | – | 33.6 µM (inactive) | – | 35.5 µM (inactive) | 24 µM (inactive) | 51.3 µM (inactive) | 42.1 µM (inactive) | 80.7 µM (inactive) | 35.2 µM (inactive) | 14.1 µM (inactive) | 38.3 µM (inactive) | 57.9 µM (inactive) | 16.6 µM (inactive) | 42.3 µM (inactive) | 59.2 µM (inactive) | > 100 µM (inactive)
CC1=CC(=O)c2ccc(C)cc2C1=O [CHIMAPHILIN] | 17.6 µM (inactive) | 2.86 µM (inactive) | 7.1 µM (inactive) | 12.7 µM | 1.98 µM (inactive) | 1.85 µM (inactive) | 38.6 µM (inactive) | 3.05 µM (inactive) | 4.09 µM (inactive) | 10.4 µM (inactive) | 11.8 µM (inactive) | 19.9 µM (inactive) | 11.6 µM (inactive) | 1.77 µM (inactive) | – | 19.1 µM (inactive) | 3.4 µM (inactive) | 2.91 µM (inactive) | 19 µM (inactive) | 16.9 µM (inactive)

— ChEMBL document CHEMBL1201862, “PubChem BioAssay data set” (2004)
